Results reported in PMC9728921, “Characterization of a KDM5 small molecule inhibitor with antiviral activity against hepatitis B virus” (PLOS ONE, 2022).

Key:
Format in all cases: biochemical
HMT or HDAC enzymes = assay: Panel of HMT and HDAC enzymes; conditions: no measurable inhibitory activity; read-out: IC50 against any of the HMT or HDAC enzymes tested
Method: Histone methyltransferase assays were performed in 96-well half-area optiplates (PerkinElmer) at room temperature. All concentrations are final unless noted otherwise. Compounds were serially diluted in DMSO and the final DMSO concentration was 1%. […] The plate was sealed, mixed on a Titramax plate shaker at 1200 rpm for 30 sec, and incubated at room temperature for 60 min. […] The plate was sealed, mixed as previously noted, incubated overnight, and read on a TopCount plate reader (PerkinElmer). The HDAC-1 histone deacetylase assay was tested using the FLUOR DE LYS platform ([…]). Inhibition of SIRT-1 histone deacetylase was tested with the AlphaLISA detection system. All assays were conducted at room temperature with a final DMSO concentration of 1%. […] After a 60-minute incubation, the reaction was quenched with 10 μL AlphaLISA H3K4-specific Acceptor beads (1:200) in Epigenetics Buffer, and the reaction mixture was incubated for 60 min. The Donor beads were diluted 1:200 into Epigenetics Buffer in the dark and 10 μL of this mixture was added to each well and incubated for another 60 min in the dark. The assay plates were read on an Enspire plate reader (PerkinElmer) using a standard AlphaLISA program. […] Data was analyzed using GraphPad Prism 6.0 (La Jolla, CA). […] IC50 values were calculated as an average of at least two independent experiments.

KDM5D = biological target: T1, KDM5D (Homo sapiens, UniProt Q9BY66); assay: KDM5D enzymatic assay (LANCE TR-FRET); conditions: IC50 of KDM5D over KDM5A
T1 construct: purchased Eurofins Cerep SA (assay run there as a contract service)
Method: KDM5D was tested using a LANCE TR-FRET assay by Eurofins Cerep SA (France). All concentrations were final unless noted otherwise. Inhibitors were added to a mixture containing 45 mM HEPES/Tris-HCl (pH 7.5), 5 μM ferrous ammonium sulfate, 100 μM ascorbic acid, 10 μM 2-oxoglutarate, 0.01% Tween 20, 0.01% BSA, and 10 ng of enzyme, followed by addition of 100 nM biotin-H3K4me3 substrate. The 10 μL reaction mixture was incubated for 10 min at room temperature and quenched through the addition of 1 mM EDTA to reach a final concentration of 0.33 mM EDTA. After 5 min, the Eu-labeled anti-methyl histone H3K4me1-2 antibody and the Ulight streptavidin were added, and the mixture was incubated for 60 min. The fluorescence resonance energy transfer was measured using an excitation wavelength of 320 nm and emission wavelengths of 620 nm and 665 nm on an Envision plate reader (Perkin Elmer).
(§1) Data was analyzed using GraphPad Prism 6.0 (La Jolla, CA). […] IC50 values were calculated as an average of at least two independent experiments.

KDM2B = biological target: T2, KDM2B (Homo sapiens, UniProt Q8NHM5); assay: KDM2B enzymatic assay (AlphaLISA)
T2 sequence (Q8NHM5 1-1336): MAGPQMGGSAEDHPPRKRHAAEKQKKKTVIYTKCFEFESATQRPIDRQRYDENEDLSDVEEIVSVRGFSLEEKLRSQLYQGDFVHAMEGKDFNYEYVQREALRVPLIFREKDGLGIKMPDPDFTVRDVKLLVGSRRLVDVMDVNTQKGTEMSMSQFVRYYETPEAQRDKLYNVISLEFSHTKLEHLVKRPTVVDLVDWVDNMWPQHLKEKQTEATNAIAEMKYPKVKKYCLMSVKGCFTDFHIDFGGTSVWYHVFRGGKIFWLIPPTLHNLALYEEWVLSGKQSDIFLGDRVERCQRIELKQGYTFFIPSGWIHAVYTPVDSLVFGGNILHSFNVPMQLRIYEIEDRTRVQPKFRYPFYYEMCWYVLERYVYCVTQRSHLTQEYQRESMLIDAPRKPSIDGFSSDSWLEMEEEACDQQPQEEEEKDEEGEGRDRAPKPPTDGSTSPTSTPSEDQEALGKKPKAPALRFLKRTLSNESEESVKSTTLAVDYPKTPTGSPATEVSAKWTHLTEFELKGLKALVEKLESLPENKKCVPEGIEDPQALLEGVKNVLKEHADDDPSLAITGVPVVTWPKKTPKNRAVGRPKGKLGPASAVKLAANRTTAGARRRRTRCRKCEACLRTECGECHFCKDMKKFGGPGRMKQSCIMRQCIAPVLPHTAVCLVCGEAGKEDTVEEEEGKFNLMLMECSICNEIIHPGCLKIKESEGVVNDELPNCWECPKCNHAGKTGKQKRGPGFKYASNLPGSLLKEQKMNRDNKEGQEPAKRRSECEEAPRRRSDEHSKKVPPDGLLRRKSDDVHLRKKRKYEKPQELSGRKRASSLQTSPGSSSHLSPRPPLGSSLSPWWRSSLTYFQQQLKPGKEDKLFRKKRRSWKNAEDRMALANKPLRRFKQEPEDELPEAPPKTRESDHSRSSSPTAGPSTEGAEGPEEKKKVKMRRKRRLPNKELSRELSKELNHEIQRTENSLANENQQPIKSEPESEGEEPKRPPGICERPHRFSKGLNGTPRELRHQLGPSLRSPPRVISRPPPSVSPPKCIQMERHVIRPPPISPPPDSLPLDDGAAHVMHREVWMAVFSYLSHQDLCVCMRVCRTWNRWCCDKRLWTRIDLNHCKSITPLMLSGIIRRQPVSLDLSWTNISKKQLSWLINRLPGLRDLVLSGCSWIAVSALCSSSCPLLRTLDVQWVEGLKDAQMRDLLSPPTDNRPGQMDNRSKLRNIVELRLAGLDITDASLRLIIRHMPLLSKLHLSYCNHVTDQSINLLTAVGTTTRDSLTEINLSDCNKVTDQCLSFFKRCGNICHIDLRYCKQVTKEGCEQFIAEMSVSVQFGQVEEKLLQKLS
Method: The following assay protocol was used for all histone demethylases tested except KDM1A, KDM5A, B, and D, which are described below. Compounds were serially diluted into a 384-well Alpha plate as a DMSO solution and mixed with 5 μL reaction buffer (buffer A) containing 50 mM HEPES (pH 7.0), 0.1% BSA, and 0.003% Tween-20. The enzyme of interest was pre-incubated with 15 μM of Fe^2+ for 10 min (except 30 min for KDM2B) in reaction buffer A. 5 μL of the enzyme mixture was added to each of the compound-containing wells and incubated for 10 min. The reaction was started by addition of a 5 μL mixture containing 300 nM peptide substrate, 75 μM L-ascorbic acid, and 30 μM α-ketoglutarate in buffer A. This final 15 μL of reaction mixture was incubated for 20 min for KDM5B and 1 hour for the other KDM enzymes. The reaction was quenched with 10 μL of diluted AlphaLISA Acceptor beads (1:400) in Epigenetics Buffer and incubated for 60 min. The Donor beads were diluted 1:400 into Epigenetics Buffer in the dark and 10 μL of this was added to each well and incubated for another 60 min in the dark. The assay plates were read on an Enspire plate reader (PerkinElmer) using a standard AlphaLISA program.
as §1

T1 sequence (Q9BY66 whole entry): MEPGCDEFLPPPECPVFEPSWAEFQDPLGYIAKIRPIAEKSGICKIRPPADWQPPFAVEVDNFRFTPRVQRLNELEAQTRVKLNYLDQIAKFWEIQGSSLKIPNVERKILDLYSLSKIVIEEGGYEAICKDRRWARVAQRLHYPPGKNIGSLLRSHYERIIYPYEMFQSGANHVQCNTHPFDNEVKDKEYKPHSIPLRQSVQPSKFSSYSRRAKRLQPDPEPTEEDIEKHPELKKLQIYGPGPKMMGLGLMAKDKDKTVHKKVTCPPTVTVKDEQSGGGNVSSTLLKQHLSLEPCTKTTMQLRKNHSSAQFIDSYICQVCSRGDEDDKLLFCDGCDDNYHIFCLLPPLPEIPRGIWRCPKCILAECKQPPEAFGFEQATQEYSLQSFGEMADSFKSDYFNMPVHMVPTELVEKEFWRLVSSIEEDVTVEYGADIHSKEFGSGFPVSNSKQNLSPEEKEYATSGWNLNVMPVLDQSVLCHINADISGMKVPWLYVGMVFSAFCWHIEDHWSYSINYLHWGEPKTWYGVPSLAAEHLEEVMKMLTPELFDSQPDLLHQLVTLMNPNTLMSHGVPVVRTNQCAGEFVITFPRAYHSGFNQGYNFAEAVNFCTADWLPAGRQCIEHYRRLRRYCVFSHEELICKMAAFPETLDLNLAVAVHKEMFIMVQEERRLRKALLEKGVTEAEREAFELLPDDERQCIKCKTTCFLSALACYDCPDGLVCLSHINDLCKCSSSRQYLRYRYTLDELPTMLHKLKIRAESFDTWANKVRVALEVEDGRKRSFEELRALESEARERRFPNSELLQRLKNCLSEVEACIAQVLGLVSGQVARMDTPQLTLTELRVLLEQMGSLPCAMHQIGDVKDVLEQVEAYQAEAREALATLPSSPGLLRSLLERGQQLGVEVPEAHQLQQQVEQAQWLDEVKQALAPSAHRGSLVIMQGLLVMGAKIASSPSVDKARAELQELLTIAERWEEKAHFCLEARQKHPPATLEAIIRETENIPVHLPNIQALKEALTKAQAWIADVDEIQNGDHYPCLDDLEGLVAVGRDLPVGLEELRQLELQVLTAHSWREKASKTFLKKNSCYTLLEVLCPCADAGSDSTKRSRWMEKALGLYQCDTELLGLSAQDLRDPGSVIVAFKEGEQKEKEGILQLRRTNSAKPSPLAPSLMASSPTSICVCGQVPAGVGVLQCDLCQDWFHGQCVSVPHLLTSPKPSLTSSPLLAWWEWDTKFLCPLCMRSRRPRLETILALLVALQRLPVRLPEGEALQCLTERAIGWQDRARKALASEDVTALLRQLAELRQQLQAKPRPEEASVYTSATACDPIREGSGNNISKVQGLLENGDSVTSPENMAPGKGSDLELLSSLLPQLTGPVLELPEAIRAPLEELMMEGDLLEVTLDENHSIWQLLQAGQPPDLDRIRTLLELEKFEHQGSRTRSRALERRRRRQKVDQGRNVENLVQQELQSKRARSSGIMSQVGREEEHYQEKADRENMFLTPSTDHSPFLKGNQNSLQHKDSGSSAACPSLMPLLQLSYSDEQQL

IC50 (HMT or HDAC enzymes): > 100000 nM
Fold Selectivity Compared to KDM5A (KDM5D): 183 fold
Fold Selectivity Compared to KDM5A (KDM2B; IC50 of KDM2B over KDM5A): > 1,720 fold
IC50 (KDM2B; enzyme concentration 2 nM): 620 nM
Compound: CCN(CCN(C)C)C(=O)CNCc1cc(C(=O)O)ccn1 [GS-080]
